Results on 28 compounds are retold here after US10294228B2, “Breathing control modulating compounds, and methods of making and using same” (NEURAD LTD., priority 2015, dated 2019).

Where a name gives a salt, the structure may show the parent alone.

This experiment relates to anesthetized rats. As to the kind of experiment: Anesthetized rat spirometry screening assay (ventilatory activity, minute volume). To be noted: increase in minute volume (VE); for change in vivo at 0.3 mg/kg: 0.3 mg/kg IV bolus, read-out: VE % Inc @ 0.3 mg/kg IV; for change in vivo at 3 mg/kg: 3.0 mg/kg IV bolus, read-out: VE % Inc @ 3.0 mg/kg IV. The class given is in vivo. How it is done:
Anesthetized rats provide a quick method of screening compounds for respiratory and cardiovascular activity.
Rats were initially anesthetized with 3% isoflurane (inhaled) and femoral artery and vein cannulas were surgically inserted. Once cannulated, the rats were transitioned to urethane anesthesia (1.5 g/kg; i.v.) and a tracheal cut-down was performed. After placing the tracheal cannula, it was connected to a pneumotachometer to record respiratory airflow from which respiratory rate (RR), tidal volume (VT), and their product minute volume (MV, also termed VE) were derived. After the surgical preparation was complete, animals were allowed to stabilize for 30 minutes while respiratory rate, tidal volume, minute volume, blood pressure and heart rate were recorded continuously. Arterial blood gases (ABG) were obtained from arterial blood collected from the femoral artery. ABG measurements were taken before and 6 minutes after vehicle and each dose of compound administered. Compounds being screened were administered via bolus injections through the venous cannula followed by a saline flush (total time of administration is approximately 30 seconds), and the animal was monitored for at least 6 minutes for changes in cardiovascular efforts. Compounds were prepared in formulations identified to ensure optimal solubility. As such, vehicle controls were matched for the formulation of each compound tested. Dosing of the compounds being screened was conducted at 0.1 and/or 0.3 mg/kg and/or 3 mg/kg The next dose was not administered until all cardiovascular and respiratory measures had returned to baseline levels. The positive control compounds used were N-[4,6-di-(n-propylamino)-[1,3,5]triazin-2-yl]-N,O-dimethyl-hydroxylamine or N-[2,6-di-(n-propylamino)-[1,3]pyrimidin-4-yl]-N,O-dimethyl-hydroxylamine (both administered at the end of each screening experiment (0.3 mg/kg dose) to validate the experiment and also to serve as a measure with which the compound being screened could be compared.
Data were analyzed by collecting cardiovascular and respiratory data in 30 second averages (BINs). Data were plotted 2 minutes before challenge and then 6 minutes after challenge.

Consider `CCCNc1nc(NC)nc2c(NC3Cc4ccccc4C3O)nc(NC)nc12` (racemic) [Compound 81, 2-(2,6-Bis-methylamino-8-propylamino-pyrimido[5,4-d]-pyrimidin-4-ylamino)-indan-1-ol], for which the change in vivo at 0.3 mg/kg was found to be 50% and the change in vivo at 3 mg/kg turned out to be 72%.
Regarding `CCCNc1nc(NC)nc2c(NCCO)nc(NC)nc12` [Compound 4a, 2-(2,6-Bis-methylamino-8-propylamino-pyrimido[5,4-d]pyrimidin-4-ylamino)-ethanol hydrochloride], the change in vivo at 0.3 mg/kg amounted to 90%.
Same read-out and setting: under `CCCNc1nc(NC)nc2c(N(C)CCO)nc(NC)nc12` [Compound 6a, 2-[(2,6-Bis-methylamino-8-propylamino-pyrimido[5,4-d]pyrimidin-4-yl)-methyl-amino]-ethanol hydrochloride] stands 37%; under `CCCNc1nc(NC)nc2c(NCCCO)nc(NC)nc12` [Compound 8a, 3-(2,6-Bis-methylamino-8-propylamino-pyrimido[5,4-d]pyrimidin-4-ylamino)-propan-1-ol hydrochloride], 31%; under `CCCNc1nc(NC)nc2c(NCC(C)O)nc(NC)nc12` (stereo not drawn) [Compound 10a, 1-(2,6-Bis-methylamino-8-propylamino-pyrimido[5,4-d]-pyrimidin-4-ylamino)-propan-2-ol hydrochloride], 93%.
For `CCCNc1nc(NC)nc2c(NC[C@H](C)O)nc(NC)nc12` [Compound 12a, (S)-1-(2,6-Bis-methylamino-8-propylamino-pyrimido[5,4-d]pyrimidin-4-ylamino)-propan-2-ol hydrochloride], the change in vivo at 0.3 mg/kg worked out at 114%.
Turning to `CCCNc1nc(NC)nc2c(NC[C@@H](C)O)nc(NC)nc12` [Compound 14a, (R)-1-(2,6-Bis-methylamino-8-propylamino-pyrimido[5,4-d]pyrimidin-4-ylamino)-propan-2-ol Hydrochloride], the change in vivo at 0.3 mg/kg was determined as 88%.
For `CCCNc1nc(NC)nc2c(NC(C)(C)CO)nc(NC)nc12` [Compound 16a, 2-(2,6-Bis-methylamino-8-propylamino-pyrimido[5,4-d]-pyrimidin-4-ylamino)-2-methyl-propan-1-ol hydrochloride], the change in vivo at 0.3 mg/kg was 80%.
The same measure, in the same setting: the value for `CCCNc1nc(NC)nc2c(N[C@@H](C)CO)nc(NC)nc12` [Compound 18a, (S)-2-(2,6-Bis-methylamino-8-propylamino-pyrimido[5,4-d]-pyrimidin-4-ylamino)-propan-1-ol Hydrochloride] was 50%; that for `CCCNc1nc(NC)nc2c(N[C@H](C)CO)nc(NC)nc12` [Compound 20a, (R)-2-(2,6-Bis-methylamino-8-propylamino-pyrimido[5,4-d]-pyrimidin-4-ylamino)-propan-1-ol Hydrochloride] was 107%; that for `CCCNc1nc(NC)nc2c(NCC(O)C(F)(F)F)nc(NC)nc12` (stereo not drawn) [Compound 22a, 3-(2,6-Bis-methylamino-8-propylamino-pyrimido[5,4-d]pyrimidin-4-ylamino)-1,1,1-trifluoro-propan-2-ol Hydrochloride] was 102%.
In the case of `CCCNc1nc(NC)nc2c(NCC(O)CC)nc(NC)nc12` (stereo not drawn) [Compound 24a, 1-(2,6-Bis-methylamino-8-propylamino-pyrimido[5,4-d]pyrimidin-4-ylamino)-butan-2-ol Hydrochloride], the change in vivo at 0.3 mg/kg was found to be 100% and the change in vivo at 3 mg/kg turned out to be 121%.
Turning to `CCCNc1nc(NC)nc2c(NC(C)C(C)O)nc(NC)nc12` (stereo not drawn) [Compound 26a, 3-(2,6-Bis-methylamino-8-propylamino-pyrimido[5,4-d]pyrimidin-4-ylamino)-butan-2-ol Hydrochloride], the change in vivo at 0.3 mg/kg turned out to be 39% and the change in vivo at 3 mg/kg was 143%.
For `CCCNc1nc(NCC)nc2c(NCCO)nc(NCC)nc12` [Compound 27a, 2-(2,6-Bis-ethylamino-8-propylamino-pyrimido[5,4-d]pyrimidin-4-ylamino)-ethanol Hydrochloride], the change in vivo at 0.3 mg/kg was 110%.
For `CCCNc1nc(NCC(F)(F)F)nc2c(NCCO)nc(NCC(F)(F)F)nc12` [Compound 28a, 2-[8-propylamino-2,6-bis-(2,2,2-trifluoroethylamino)-pyrimido[5,4-d]pyrimidin-4-ylamino]ethanol hydrochloride], the change in vivo at 0.3 mg/kg worked out at 16%.
Take `CCCNc1nc(NCC)nc2c(NCC(C)(C)O)nc(NCC)nc12` [Compound 32a, 1-(2,6-Bis-ethylamino-8-propylamino-pyrimido[5,4-d]-pyrimidin-4-ylamino)-2-methyl-propan-2-ol hydrochloride]: the change in vivo at 0.3 mg/kg came out at 201%.
For `CCCNc1nc(NCC(F)F)nc2c(NCC(C)(C)O)nc(NCC(F)F)nc12` [Compound 33a, 1-[2,6-Bis-(2,2-difluoro-ethylamino)-8-propylamino-pyrimido[5,4-d]-pyrimidin-4-ylamino]-2-methyl-propan-2-ol Hydrochloride], the change in vivo at 0.3 mg/kg worked out at 23% and the change in vivo at 3 mg/kg is 115%.
For `CCCNc1nc(NCC(F)(F)F)nc2c(NCC(C)(C)O)nc(NCC(F)(F)F)nc12` [Compound 34a, 2-Methyl-1-[8-propylamino-2,6-bis-(2,2,2-trifluoro-ethylamino)-pyrimido[5,4-d]pyrimidin-4-ylamino]-propan-2-ol Hydrochloride], the change in vivo at 0.3 mg/kg was found to be 2%.
`CNc1nc(NCC(C)(C)O)c2nc(NC)nc(NCC(F)F)c2n1` [Compound 36a, 1-[8-(2,2-Difluoro-ethylamino)-2,6-bis-methylamino-pyrimido[5,4-d]pyrimidin-4-ylamino]-2-methyl-propan-2-ol Hydrochloride]: the change in vivo at 0.3 mg/kg was determined as 34%.
As for `CNc1nc(NCC(C)(C)O)c2nc(NC)nc(NCc3ncccn3)c2n1` [Compound 38a, 1-{2,6-Bis-methylamino-8-[(pyrimidin-2-ylmethyl)-amino]-pyrimido[5,4-d]pyrimidin-4-ylamino}-2-methyl-propan-2-ol Hydrochloride], the change in vivo at 0.3 mg/kg turned out to be 18% and the change in vivo at 3 mg/kg amounted to 27%.
`CC[C@@H](C)Nc1nc(NC)nc2c(NCC(C)(C)O)nc(NC)nc12` [Compound 40a, 1-[8-((R)-sec-Butylamino)-2,6-bis-methylamino-pyrimido[5,4-d]-pyrimidin-4-ylamino]-2-methyl-propan-2-ol Hydrochloride]: the change in vivo at 0.3 mg/kg worked out at 79% and the change in vivo at 3 mg/kg was 158%.
For `CC[C@H](C)Nc1nc(NC)nc2c(NCC(C)(C)O)nc(NC)nc12` [Compound 42a, 1-[8-((S)-sec-Butylamino)-2,6-bis-methylamino-pyrimido[5,4-d]-pyrimidin-4-ylamino]-2-methyl-propan-2-ol Hydrochloride], in that order: 76% and 149%.
For `CNc1nc(NCC(C)(C)O)c2nc(NC)nc(NCc3ccccc3)c2n1` [Compound 44a, 1-(8-Benzylamino-2,6-bis-methylamino-pyrimido[5,4-d]pyrimidin-4-ylamino)-2-methyl-propan-2-ol Hydrochloride], the change in vivo at 0.3 mg/kg was 122% and the change in vivo at 3 mg/kg was 132%.
For `CNc1nc(NCC(C)(C)O)c2nc(NC)nc(NCC3CC3)c2n1` [Compound 46a, 1-[8-(Cyclopropylmethyl-amino)-2,6-bis-methylamino-pyrimido[5,4-d]pyrimidin-4-ylamino]-2-methyl-propan-2-ol Hydrochloride], in that order: 79% and 203%.
For the compound `CCNc1nc(NCC(C)(C)O)c2nc(NCC)nc(NCC(F)F)c2n1` [Compound 47a, 1-[8-(2,2-difluoro-ethylamino)-2,6-bis-ethylamino-pyrimido[5,4-d]pyrimidin-4-ylamino]-2-methyl-propan-2-ol hydrochloride], the change in vivo at 0.3 mg/kg turned out to be 31%.
As to `CNc1nc(NCC(C)(C)O)c2nc(NC)nc(NC)c2n1` [Compound 48a, 2-Methyl-1-(2,6,8-tris-methylamino-pyrimido[5,4-d]-pyrimidin-4-ylamino)-propan-2-ol Hydrochloride], the change in vivo at 0.3 mg/kg came to 20% and the change in vivo at 3 mg/kg was 78%.
Take `CCNc1nc(NCC(C)(C)O)c2nc(NCC)nc(NCC)c2n1` [Compound 49a, 2-Methyl-1-(2,6,8-tris-ethylamino-pyrimido[5,4-d]-pyrimidin-4-ylamino)-propan-2-ol Hydrochloride]: the change in vivo at 0.3 mg/kg was determined as 127% and the change in vivo at 3 mg/kg was found to be 183%.
Take `CNc1nc(NCCO)c2nc(NC)nc(NC)c2n1` [Compound 52a, 2-(2,6,8-Tris-methylamino-pyrimido[5,4-d]pyrimidin-4-ylamino)-ethanol Hydrochloride]: the change in vivo at 0.3 mg/kg is 26%.
